Experimental data: ChEMBL document CHEMBL5725765, “Inhibitors of lysine specific demethylase-1” (2017)

Target: Lysine-specific histone demethylase 1A (Homo sapiens, UniProt O60341)
Test: In Vitro Enzyme Inhibition Assay: This assay determines the ability of a test compound to inhibit LSD1 demethylase activity.

| SMILES | IC50 [nM] |
| --- | --- |
| Cn1c(N2CCC(N)CC2)nc(-c2ccc(O)cc2)c(-c2ccc3c(ccn3C)c2)c1=O | > 10000 |
| Cn1c(N2CCC(N)CC2)nc(-c2ccc(C#N)c(F)c2)c(-c2ccc(C(F)(F)F)nc2)c1=O | < 100 |
| Cn1c(N2CCC(N)CC2)nc(-c2ccc(C#N)c(F)c2)c(-c2ccc3cc[nH]c3c2)c1=O | < 100 |
| Cn1cc2cc(-c3c(-c4ccc(C#N)cc4)nc(N4CCC(N)CC4)n(C)c3=O)ccc2n1 | < 100 |

Second part, the compound after the results:

| IC50 [nM] | SMILES |
| --- | --- |
| < 100 | Cn1c(N2CCC(N)CC2)nc(-c2ccc(C#N)c(F)c2)c(-c2ccc3c(cnn3C)c2)c1=O |
| < 100 | Cn1c(N2CCC(N)CC2)nc(-c2ccc(C#N)cc2)c(-c2ccc3c(cnn3C)c2)c1=O |
| < 100 | Cn1c(N2CCC(N)CC2)nc(-c2ccc(C#N)c(F)c2)c(-c2ccc3c(ccn3C)c2)c1=O |
